# Assay results taken from article PMC10850145, “Hormonal steroids induce multidrug resistance and stress response genes in Neisseria gonorrhoeae by binding to MtrR” (Nature Communications, 2024).
# Several values for one entry are separate records, joined by “and”; a condition that tells them apart may be missing. Equal entries are not always repeated. Where two headings read alike, the source gives them in different places.
# Test system: rpoH-lacZ expression
# Type: cell-based, Neisseria gonorrhoeae
# Details: for Miller units, single well: individual replicate
# [1] = rpoH-lacZ, ΔmtrR + mtrR D171A in trans, 6.25 µM hormone, single replicate
# [2] = rpoH-lacZ, ΔmtrR + mtrR D171A in trans, 12.5 µM hormone, single replicate
# [3] = rpoH-lacZ, ΔmtrR + mtrR D171A in trans, 25 µM hormone, single replicate
# [4] = rpoH-lacZ, ΔmtrR + mtrR D171A in trans, 50 µM hormone, single replicate
# [5] = rpoH-lacZ, ΔmtrR + mtrR WT in trans, 25 µM hormone, single replicate
structure (smiles),measurement,setting,value
"C[C@]12CC[C@H]3[C@@H](CCC4=CC(=O)CC[C@@]43C)[C@@H]1CC[C@@H]2O [Testosterone, testosterone]","Miller units, single well","50 µM hormone, plate columns 1-6 (WT)",140 Miller units and 146 Miller units and 175 Miller units
same,"Miller units, Mean","50 µM hormone, plate columns 1-6 (WT), mean of 4 wells",152 Miller units
same,"Miller units, Mean","50 µM hormone, plate columns 1-6 (WT), mean of plate rows 5-8 (rpoH)",152 Miller units
same,Miller units,"50 µM hormone, plate columns 1-6 (WT), plate rows 5-8 (rpoH), single well",140 Miller units and 146 Miller units and 175 Miller units
same,Miller units,"50 µM hormone, plate columns 7-12 (second strain not given), plate rows 5-8 (rpoH), single well",166 Miller units and 158 Miller units and 156 Miller units
same,"Miller units, Mean","50 µM hormone, plate columns 7-12 (second strain), mean of plate rows 5-8 (rpoH)",162 Miller units
same,"Miller units, single well","50 µM hormone, plate columns 7-12 (second strain, not WT)",166 Miller units and 158 Miller units and 156 Miller units
same,"Miller units, Mean","50 µM hormone, plate columns 7-12 (second strain, not WT), mean of 4 wells",162 Miller units
same,"Plate-6 (Testosterone) Miller units, Mean","50 µM, plate column 6, mean of plate rows 5-8, right (rpoH) half of sheet",68 Miller units
same,Plate-6 (Testosterone) Miller units,"50 µM, plate column 6, plate rows 5-8, single wells, right (rpoH) half of sheet",76 Miller units and 71 Miller units and 62 Miller units and 63 Miller units
same,"Plate-6 (Testosterone) Miller units, Mean","50 µM, plate column 12, mean of plate rows 5-8, right (rpoH) half of sheet",57 Miller units
same,Plate-6 (Testosterone) Miller units,"50 µM, single wells, right (rpoH) half of sheet",65 Miller units and 49 Miller units and 56 Miller units and 58 Miller units
same,induction of rpoH expression,"complemented (MtrR+) strains, increasing hormone",could be induced
same,induction of rpoH expression,loss of MtrR or MtrR-D171A strain,abrogated
same,Miller units,[1],55 Miller units and 65 Miller units
same,β-galactosidase activity (Miller units),[1],55 Miller units and 57 Miller units and 80 Miller units
same,Miller units,[2],63 Miller units
same,β-galactosidase activity (Miller units),[2],58 Miller units and 54 Miller units and 74 Miller units
same,Miller units,[3],68 Miller units
same,β-galactosidase activity (Miller units),[3],64 Miller units and 60 Miller units and 67 Miller units
same,Miller units,[4],56 Miller units
same,β-galactosidase activity (Miller units),[4],65 Miller units and 49 Miller units and 58 Miller units
same,β-galactosidase activity (Miller units),"rpoH-lacZ, ΔmtrR + mtrR WT in trans, 6.25 µM hormone, single replicate",39 Miller units and 46 Miller units and 47 Miller units
same,β-galactosidase activity (Miller units),"rpoH-lacZ, ΔmtrR + mtrR WT in trans, 12.5 µM hormone, single replicate",51 Miller units and 50 Miller units and 56 Miller units and 52 Miller units
same,Miller units,[5],55 Miller units
same,β-galactosidase activity (Miller units),[5],68 Miller units and 55 Miller units and 57 Miller units and 70 Miller units
same,β-galactosidase activity (Miller units),"rpoH-lacZ, ΔmtrR + mtrR WT in trans, 50 µM hormone, single replicate",76 Miller units and 71 Miller units and 62 Miller units and 63 Miller units
same,β-galactosidase activity (Miller units),"rpoH-lacZ, ΔmtrR strain, 6.25 µM hormone, single replicate",119 Miller units and 89 Miller units and 76 Miller units
same,β-galactosidase activity (Miller units),"rpoH-lacZ, ΔmtrR strain, 12.5 µM hormone, single replicate",126 Miller units and 100 Miller units and 81 Miller units
same,β-galactosidase activity (Miller units),"rpoH-lacZ, ΔmtrR strain, 25 µM hormone, single replicate",155 Miller units and 93 Miller units and 79 Miller units
same,β-galactosidase activity (Miller units),"rpoH-lacZ, ΔmtrR strain, 50 µM hormone, single replicate",151 Miller units and 101 Miller units and 93 Miller units
same,Miller units,"rpoH-lacZ, ΔmtrR, 6.25 µM hormone, single replicate",100 Miller units
same,Miller units,"rpoH-lacZ, ΔmtrR, 12.5 µM hormone, single replicate",101 Miller units
same,Miller units,"rpoH-lacZ, ΔmtrR, 25 µM hormone, single replicate",122 Miller units
same,Miller units,"rpoH-lacZ, ΔmtrR, 50 µM hormone, single replicate",132 Miller units
same,"β-galactosidase activity, rpoH-lacZ, Mean","strain WT (FA19/pLES94-rpoH), hormone 6.25 µM",69 Miller units
same,"β-galactosidase activity, rpoH-lacZ, Mean","strain WT (FA19/pLES94-rpoH), hormone 12.5 µM",81 Miller units
same,"β-galactosidase activity, rpoH-lacZ, Mean","strain WT (FA19/pLES94-rpoH), hormone 25 µM",98 Miller units
same,"β-galactosidase activity, rpoH-lacZ, Mean","strain WT (FA19/pLES94-rpoH), hormone 50 µM",117 Miller units
same,activation of rpoH,strain producing MtrR R176E,significantly less activation
same,"β-galactosidase activity, rpoH-lacZ, Mean","strain ΔmtrR (FA19 ∆mtrR/pLES94-rpoH), hormone 6.25 µM",96 Miller units
same,"β-galactosidase activity, rpoH-lacZ, Mean","strain ΔmtrR (FA19 ∆mtrR/pLES94-rpoH), hormone 12.5 µM",102 Miller units
same,"β-galactosidase activity, rpoH-lacZ, Mean","strain ΔmtrR (FA19 ∆mtrR/pLES94-rpoH), hormone 25 µM",112 Miller units
same,"β-galactosidase activity, rpoH-lacZ, Mean","strain ΔmtrR (FA19 ∆mtrR/pLES94-rpoH), hormone 50 µM",119 Miller units
same,"β-galactosidase activity, rpoH-lacZ, Mean","strain ΔmtrR + mtrR D171A (pGCC3-mtrR D171A), hormone 6.25 µM",64 Miller units
same,"β-galactosidase activity, rpoH-lacZ, Mean","strain ΔmtrR + mtrR D171A (pGCC3-mtrR D171A), hormone 12.5 µM",62 Miller units
same,"β-galactosidase activity, rpoH-lacZ, Mean","strain ΔmtrR + mtrR D171A (pGCC3-mtrR D171A), hormone 25 µM",65 Miller units
same,"β-galactosidase activity, rpoH-lacZ, Mean","strain ΔmtrR + mtrR D171A (pGCC3-mtrR D171A), hormone 50 µM",57 Miller units
same,"β-galactosidase activity, rpoH-lacZ, Mean","strain ΔmtrR + mtrR WT (pGCC3-mtrR), hormone 6.25 µM",43 Miller units
same,"β-galactosidase activity, rpoH-lacZ, Mean","strain ΔmtrR + mtrR WT (pGCC3-mtrR), hormone 12.5 µM",52 Miller units
same,"β-galactosidase activity, rpoH-lacZ, Mean","strain ΔmtrR + mtrR WT (pGCC3-mtrR), hormone 25 µM",63 Miller units
same,"β-galactosidase activity, rpoH-lacZ, Mean","strain ΔmtrR + mtrR WT (pGCC3-mtrR), hormone 50 µM",68 Miller units
same,"Plate-6 (Testosterone) Miller units, Mean","testosterone 6.25 µM, plate column 3, lower four plate rows",43 Miller units
same,"Plate-6 (Testosterone) Miller units, Mean","testosterone 6.25 µM, plate column 9 (second strain set, columns 7-12), lower four plate rows",64 Miller units
same,"Plate-6 (Testosterone) Miller units, Mean","testosterone 12.5 µM, plate column 4, lower four plate rows",52 Miller units
same,"Plate-6 (Testosterone) Miller units, Mean","testosterone 12.5 µM, plate column 10 (second strain set, columns 7-12), lower four plate rows",62 Miller units
same,"Plate-6 (Testosterone) Miller units, Mean","testosterone 25 µM, plate column 5, lower four plate rows",63 Miller units
same,"Plate-6 (Testosterone) Miller units, Mean","testosterone 25 µM, plate column 11 (second strain set, columns 7-12), lower four plate rows",65 Miller units
same,"Plate-6 (Testosterone) Miller units, Mean","testosterone 50 µM, plate column 6, lower four plate rows",68 Miller units
same,"Plate-6 (Testosterone) Miller units, Mean","testosterone 50 µM, plate column 12 (second strain set, columns 7-12), lower four plate rows",57 Miller units
